Data taken from ChEMBL document CHEMBL1147631, “Aminomethylpyrimidines as novel DPP-IV inhibitors: a 10(5)-fold activity increase by optimization of aromatic substituents” (Bioorg Med Chem Lett, 2004).

Target: Dipeptidyl peptidase 4 (Homo sapiens, UniProt P27487)
Assay: Inhibitory activity against Dipeptidylpeptidase IV mediated cleavage of Ala-Pro-7-amido-4-tri-fluoromethylcoumarin in a fluorogenic assay
Type: functional

Chain of Dipeptidyl peptidase 4 (P27487 whole entry): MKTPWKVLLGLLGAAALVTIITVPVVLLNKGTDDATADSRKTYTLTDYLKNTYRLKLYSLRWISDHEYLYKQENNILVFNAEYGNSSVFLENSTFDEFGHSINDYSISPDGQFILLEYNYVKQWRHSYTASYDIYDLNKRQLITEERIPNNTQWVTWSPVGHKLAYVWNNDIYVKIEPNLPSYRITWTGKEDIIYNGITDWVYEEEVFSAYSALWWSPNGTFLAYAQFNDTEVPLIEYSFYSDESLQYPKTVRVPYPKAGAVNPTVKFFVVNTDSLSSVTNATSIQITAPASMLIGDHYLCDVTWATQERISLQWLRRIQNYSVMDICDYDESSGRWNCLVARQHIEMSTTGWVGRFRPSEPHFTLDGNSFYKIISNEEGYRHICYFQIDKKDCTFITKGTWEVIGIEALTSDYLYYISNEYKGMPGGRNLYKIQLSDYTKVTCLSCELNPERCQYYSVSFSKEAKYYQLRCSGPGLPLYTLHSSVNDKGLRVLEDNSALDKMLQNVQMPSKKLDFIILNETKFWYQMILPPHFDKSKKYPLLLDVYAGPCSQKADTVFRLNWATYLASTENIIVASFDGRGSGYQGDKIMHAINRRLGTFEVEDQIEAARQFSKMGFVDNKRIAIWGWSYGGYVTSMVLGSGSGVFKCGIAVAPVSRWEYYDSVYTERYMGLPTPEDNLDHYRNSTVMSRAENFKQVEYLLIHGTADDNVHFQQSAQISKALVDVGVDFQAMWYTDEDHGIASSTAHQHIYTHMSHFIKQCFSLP

SMILES	IC50
NCc1c(N)nc(-c2ccccc2)nc1-c1ccc(F)cc1	18 µM
Cc1cccc(-c2nc(-c3ccccc3)nc(N)c2CN)c1	20 µM
NCc1c(N)nc(-c2ccccc2)nc1-c1ccccc1F	14 µM
NCc1c(N)nc(-c2ccccc2)nc1-c1ccccc1C(F)(F)F	14 µM
NCc1c(N)nc(-c2ccccc2)nc1-c1cccc(C(F)(F)F)c1	170 µM
NCc1c(N)nc(-c2ccccc2)nc1-c1ccccc1	42 µM
COc1cccc(-c2nc(-c3ccccc3)nc(N)c2CN)c1	80 µM
NCc1c(N)nc(-c2ccccc2)nc1-c1ccc(Cl)cc1	1.4 µM
NCc1c(N)nc(-c2ccc(C(F)(F)F)cc2)nc1-c1ccc(Cl)cc1Cl	0.18 µM
COc1ccccc1-c1nc(N)c(CN)c(-c2ccc(Cl)cc2Cl)n1	0.35 µM
NCc1c(N)nc(-c2ccc(F)cc2)nc1-c1ccc(Cl)cc1Cl	0.0002 µM
Cc1ccc(-c2nc(N)c(CN)c(-c3ccc(Cl)cc3Cl)n2)cc1	0.09 µM
NCc1c(N)nc(-c2ccccc2)nc1-c1ccc(C(F)(F)F)cc1	1.1 µM
Cc1ccccc1-c1nc(-c2ccccc2)nc(N)c1CN	1.5 µM
Cc1cccc(-c2nc(N)c(CN)c(-c3ccc(Cl)cc3Cl)n2)c1	0.0009 µM
NCc1c(N)nc(-c2ccccc2)nc1-c1cccc(F)c1	40 µM
NCc1c(N)nc(-c2ccccc2)nc1-c1ccc(Cl)cc1Cl	0.01 µM
COc1ccc(-c2nc(-c3ccccc3)nc(N)c2CN)cc1	47 µM
NCc1c(N)nc(-c2ccccc2)nc1-c1ccccc1Cl	2.5 µM
COc1ccccc1-c1nc(-c2ccccc2)nc(N)c1CN	1.5 µM
COc1ccc(-c2nc(N)c(CN)c(-c3ccc(Cl)cc3Cl)n2)cc1	0.1 µM
NCc1c(N)nc(-c2ccccc2F)nc1-c1ccc(Cl)cc1Cl	0.047 µM
Cc1ccccc1-c1nc(N)c(CN)c(-c2ccc(Cl)cc2Cl)n1	1.75 µM
NCc1c(N)nc(-c2cccc(C(F)(F)F)c2)nc1-c1ccc(Cl)cc1Cl	0.13 µM
NCc1c(N)nc(-c2cccc(Cl)c2)nc1-c1ccc(Cl)cc1Cl	0.24 µM
NCc1c(N)nc(-c2ccc(Cl)cc2)nc1-c1ccc(Cl)cc1Cl	0.053 µM
COc1cccc(-c2nc(N)c(CN)c(-c3ccc(Cl)cc3Cl)n2)c1	0.34 µM
NCc1c(N)nc(-c2ccc(F)c(F)c2)nc1-c1ccc(Cl)cc1Cl	0.003 µM
Cc1ccc(-c2nc(-c3ccccc3)nc(N)c2CN)cc1	1 µM
NCc1c(N)nc(-c2ccccc2)nc1-c1cccc(Cl)c1	31 µM
